Reference: US20250057913A1, “USE OF SOMATOSTATIN AGONIST IN THE TREATMENT OF SSTR3 EXPRESSING TUMORS” (ITALFARMACO SPA, priority 2021, published 2025)
*1 amine or outer side, *2 acyl side, *3 side chain or, on linkers, in order; H or OH if unused. Where a SMILES comes first, the peptide text is derived from it. Side-chain parts run from the residue outwards. [ ]: non-standard residue; d: D form. The star is where a group is joined. Ethylenediamine = C(CN[*:2])N[*:1]; Hyp = O=C(O)[C@@H]1C[C@@H](O)CN1; Phg = N[C@H](C(=O)O)c1ccccc1; CO = O=C([*:1])[*:2]; Bn = c1ccc(C*)cc1

Tests used:
[1] = biological target: wild-type hSSTR2 stably expressed in HEK293 cells (human) (UniProt P30874)
[2] = biological target: wild-type hSSTR3 stably expressed in HEK293 cells (human) (UniProt P32745)
[3] = biological target: wild-type hSSTR5 stably expressed in HEK293 cells (human) (UniProt P35346)
[4] = system: opioid receptors; test: single dose binding assays on opioid receptors; settings: single dose 10^−5 M
[5] = system: NT-3 cell line spheroids; test: Cytotoxic activity on NT-3 cell line spheroids; assay type: cell-based, human; settings: 2.56 μM, 18 days
Protocol: NT-3 well-differentiated pancreatic neuroendocrine (PanNET) cell line (32) is an in-vitro model for pancreatic tumours.
Said cells were cultured in RPMI 1640 Medium GlutaMAX™ with 10% FBS, 1% Penicillin/Streptomycin, 20ng/ml EGF (AF-100-15, Peprotech), 10 ng/ml FGF (100-18B, Peprotech).
3D spheroids were generated by seeding 2000 cells/well in a 96-well ULA plate (Corning). Four replicates for each condition were seeded.
The spheroid formation required 4 days before starting the treatment.
The treatment was repeated every 3 days by replacing 50% of the medium (to avoid spheroid removal) with new medium containing 2× desired drug concentration.
Spheroid morphology was monitored every day during the treatment and pictures were taken on day 0, 4, 7, 11, 14, 18. Day 0 corresponds to the first day of treatment. Pictures were taken from the same well every time point.

[6] = system: NFPAs in MENX (homozygous mutant) rats; settings: female and male rats; cited from earlier work
[7] = system: Clinically Non-Functioning Pituitary Adenoma; settings: Pasireotide LAR, NFPA patients; cited from earlier work
[8] = biological target: T1, SSTR3 (Homo sapiens, UniProt P32745); test: SSTR3 phosphorylation in HEK293 transfected cells (phosphosite-specific antibodies); assay type: cell-based; design: expressed in transfected cells; settings: 10^−12 to 10^−5 M, 10 min at 37° C.
Protocol: The levels of phosphorylated SST3 receptor were then determined using the phosphosite-specific anti-pS337/pT341 or anti-pT348.
(§1) Finally, the SSTR5 pT333 phosphosite was only partially affected by all tested compounds, with Pasireotide showing the most pronounced effect (FIG. 9B, C).

[9] = biological target: T2, SSTR2 (Homo sapiens, UniProt P30874); test: SSTR2 phosphorylation in HEK293 transfected cells (phosphosite-specific antibodies); assay type: cell-based; design: expressed in transfected cells; settings: 10 or 1 μM, 10 min at 37° C.
Protocol: (A) Schematic representation of the human SSTR2 receptor indicating all potential phosphate acceptor sites within the carboxyl-terminal tail. Epitopes of the phosphosite-specific antibodies are marked (-P). […] The levels of phosphorylated SSTR2 receptor were then determined using the phosphosite-specific anti-pS341/pS343, pT353/T354, pT356/T359 antibodies. […] Blots shown are representative of three independent experiments. The positions of molecular mass markers are indicated on the left (in kDa).

[10] = biological target: T3, SSTR5 (Homo sapiens, UniProt P35346); test: SSTR5 phosphorylation in HEK293 transfected cells (anti-pT333); assay type: cell-based; design: expressed in transfected cells; settings: 10 min at 37° C.
Text: FIG. 9—Agonist-selective SSTR5 phosphorylation in HEK293 transfected cells. (A) Schematic representation of the human SSTR5 receptor indicating all potential phosphate acceptor site within the carboxyl-terminal tail. Epitope of the phosphosite-specific antibodies are marked (-P) . . . […] (C) Blots were subsequently stripped and reprobed with anti-HA antibody to confirm equal loading of the gels. Blots shown are representative of three independent experiments. The positions of molecular mass markers are indicated on the left (in kDa).
as §1

[11] = biological target: SSTR2-tGFP (Homo sapiens, UniProt P30874); test: Internalization of SSTR2 in U2OS transfected cells; assay type: cell-based; design: expressed in transfected cells; host or cells: U2OS
Text: (§2) HEK293 cells transfected with human SSTRs, and U20S cells transfected with human GFP-tagged receptors (SSTR2-tGFP, SSTR3-tGFP, SSTR5-tGFP).

[12] = biological target: SSTR3-tGFP (Homo sapiens, UniProt P32745); test: Internalization of SSTR3 in U2OS transfected cells; assay type: cell-based; design: expressed in transfected cells; host or cells: U2OS
Text: as §2

[13] = biological target: SSTR5-tGFP (Homo sapiens, UniProt P35346); test: Internalization of SSTR5 in U2OS transfected cells; assay type: cell-based; design: expressed in transfected cells; host or cells: U2OS
Text: as §2

[14] = biological target: T1, SSTR3; test: GIRK-based fluorescence membrane potential assay, HEK293-GIRK2-GFP-HA-hSST3
Text: The concentrations used are indicated. […] Data points represent mean±S.E.M.
(§3) Therefore, G protein-signaling mediated by SSTR agonists was studied using a GIRK-based fluorescence membrane potential assay both in HEK293 cells transfected with hSSTR3, and in AtT20 wild-type as well as hSSTR3-transfected cells.

[15] = biological target: T3, SSTR5
Text: as §3

[16] = biological target: T2, SSTR2; test: cell-based; design: expressed in transfected cells; host or cells: HEK293 co-expressing GIRK2-GFP
Text: as §3

Sequence of SSTR3-tGFP (P32745 whole entry): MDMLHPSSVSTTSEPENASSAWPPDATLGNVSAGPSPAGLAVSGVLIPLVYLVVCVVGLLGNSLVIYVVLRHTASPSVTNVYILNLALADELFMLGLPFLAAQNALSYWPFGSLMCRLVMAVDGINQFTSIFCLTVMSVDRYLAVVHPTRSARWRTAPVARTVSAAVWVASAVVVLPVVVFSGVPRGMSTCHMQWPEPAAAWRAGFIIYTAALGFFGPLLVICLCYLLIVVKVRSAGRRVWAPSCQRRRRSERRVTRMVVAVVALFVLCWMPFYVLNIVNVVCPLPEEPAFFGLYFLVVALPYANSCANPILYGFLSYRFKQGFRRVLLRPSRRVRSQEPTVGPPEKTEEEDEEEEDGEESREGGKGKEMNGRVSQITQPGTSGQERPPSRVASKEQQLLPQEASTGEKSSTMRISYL
Sequence of SSTR2-tGFP (P30874 whole entry): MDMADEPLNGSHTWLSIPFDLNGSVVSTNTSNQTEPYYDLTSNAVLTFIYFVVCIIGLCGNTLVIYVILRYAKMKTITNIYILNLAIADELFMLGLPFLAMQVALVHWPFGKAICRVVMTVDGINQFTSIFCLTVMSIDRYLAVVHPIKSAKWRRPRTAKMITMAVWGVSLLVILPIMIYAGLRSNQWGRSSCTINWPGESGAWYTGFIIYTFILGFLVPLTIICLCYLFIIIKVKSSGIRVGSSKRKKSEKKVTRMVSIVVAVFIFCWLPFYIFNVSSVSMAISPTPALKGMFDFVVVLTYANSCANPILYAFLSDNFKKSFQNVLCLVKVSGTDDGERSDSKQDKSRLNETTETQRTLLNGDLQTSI
T2 sequence (P30874 whole entry): as above
T3 sequence (P35346 whole entry): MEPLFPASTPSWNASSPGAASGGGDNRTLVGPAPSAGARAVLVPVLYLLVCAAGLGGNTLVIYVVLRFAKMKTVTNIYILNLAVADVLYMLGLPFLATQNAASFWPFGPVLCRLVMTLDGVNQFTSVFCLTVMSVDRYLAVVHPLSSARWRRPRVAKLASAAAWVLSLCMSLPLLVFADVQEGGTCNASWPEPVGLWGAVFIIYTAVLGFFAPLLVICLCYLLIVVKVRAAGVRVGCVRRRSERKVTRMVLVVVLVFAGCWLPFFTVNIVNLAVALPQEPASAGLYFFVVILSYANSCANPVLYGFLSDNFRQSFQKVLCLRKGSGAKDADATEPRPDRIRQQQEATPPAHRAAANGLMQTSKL
Sequence of SSTR5-tGFP (P35346 whole entry): as above
T1 sequence (P32745 whole entry): as the sequence (P32745 whole entry) above

Compound activity (EC50 nM), GIRK membrane potential assay [1] [nM] | Compound | spheroid morphology at the highest concentration [5] | phosphorylation of SSTR2 (pS341/pS343, pT353/T354, pT356/T359) [9] | Mean of internalized fluorescence, SSTR2 ([11]; 1 μM) [AU] | Mean of internalized fluorescence, SSTR2 ([11]; 10 μM) [AU] | Mean of internalized fluorescence, SSTR3 ([12]; 1 μM) [AU] | Mean of internalized fluorescence, SSTR3 ([12]; 10 μM) [AU] | other results
60 | Pasireotide (peptide) |  |  |  |  |  |  | Compound activity (EC50 nM), GIRK membrane potential assay [2]: 63 nM; Compound activity (EC50 nM), GIRK membrane potential assay [3]: 16.5 nM
4 | Octreotide (peptide) |  |  |  |  |  |  | 
 | NCCCC[C@@H]1NC(=O)[C@@H](Cc2c[nH]c3ccccc23)NC(=O)[C@H](c2ccccc2)NC(=O)[C@@H]2C[C@@H](OC(=O)NCCN)CN2C(=O)[C@H](Cc2ccccc2)NC(=O)[C@H](Cc2ccc(OCc3ccccc3)cc2)NC1=O [Pasireotide, reference compound] (cyclo([Hyp]([CO-Ethylenediamine])[Phg][dW]KY(Bn)F)) | still maintain their morphology | selective phosphorylation of S341/S343 | 49.2 | 50.5 | 41.6 | 46.3 | replacement of agonists [4]: fully replace agonists; antitumor activity in the MENX model (published report) [6]: higher antitumor activity than Octreotide; patients reaching a tumor size reduction at least 20% [7]: 16.7%; phosphorylation of SSTR3 (pS337/pT341, pT348) [8]: weak effect; phosphorylation of SSTR5 (pT333) [10]: more potent than ITF2984 and octreotide; Mean of internalized fluorescence, SSTR5 ([13]; 1 μM): 40.5 AU; Mean of internalized fluorescence, SSTR5 ([13]; 10 μM): 43.9 AU; EC50 [14]: 63 ± 7.5 nM; EC50 [15]: 16.5 ± 2.5 nM; EC50 [16]: 60 ± 16.3 nM
 | C[C@@H](O)[C@@H]1NC(=O)[C@H](CCCCN)NC(=O)[C@@H](Cc2c[nH]c3ccccc23)NC(=O)[C@H](Cc2ccccc2)NC(=O)[C@@H](NC(=O)[C@H](N)Cc2ccccc2)CSSC[C@@H](C(=O)N[C@H](CO)[C@@H](C)O)NC1=O [Octreotide] | still maintain their morphology | full phosphorylation of SSTR2 | 74.1 | 81.0 | 43.4 | 55.2 | rank as SSTR2-tGFP internalization inducer [11]: most potent internalization inducer
